# Values quoted from earlier work, collected in patent US11759493B2, “Composition for the treatment of constipation” (NEILOS S.R.L., priority 2017, dated 2023).
# Experiments:
# [1] = 20 and 40 g per day, both study groups
# [2] = 10 g, versus placebo, healthy individuals
# [3] = patients affected by constipation, meta-analysis
SMILES,"frequency, volume and weight of feces [1]",transit in the small intestine [2],percentage of people involved in the studies affected by diarrhea (20 g of active ingredient),diarrhea (dosage of 10 g per day),evacuation frequency and feces consistency [3]
OC[C@H]1O[C@@H](O[C@@H]2[C@@H](CO)OC(O)(CO)[C@H]2O)[C@H](O)[C@@H](O)[C@H]1O (mixture of isomers) [lactulose],significant increase,accelerating effect,,,
"OC[C@@H](O)[C@@H](O[C@@H]1O[C@H](CO)[C@H](O)[C@H](O)[C@H]1O)[C@H](O)[C@@H](O)CO [lactitol, 4-O-β-D-galactopyranosyl-D-glucitol]",,,5-20%,absence of diarrhea,increase the evacuation frequency and the feces consistency
